This assay concerns P388 leukemia ip, CD2F1 mice, survival T/C. The assay is described as follows: NCI In Vivo Anticancer Drug Screen. Data for tumor model P388 Leukemia (intraperitoneal) in CD2F1 (CDF1) mice. As to conditions: endpoint: median survival time, higher = longer survival. The method, boiled down: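 Mice carrying the transplanted tumor received test compound or vehicle. Survival was recorded in each group, and the value is the treated-group measurement divided by that of the vehicle-treated control group.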

[1] abbreviates: dose: 50.0 mg/kg/injection, schedule: Q01DX005 (ip), vehicle: saline with Tween-80.
Setting [2] is: dose: 100.0 mg/kg/injection, schedule: Q01DX005 (ip), vehicle: saline with Tween-80.
The mark [3] stands for this setting: dose: 200.0 mg/kg/injection, schedule: Q01DX005 (ip), vehicle: saline with Tween-80.
Setting [4] is: dose: 60.0 mg/kg/injection, schedule: Q01DX005 (ip), vehicle: saline.
Setting [5] is: dose: 120.0 mg/kg/injection, schedule: Q01DX005 (ip), vehicle: saline.
[6] abbreviates: dose: 25.0 mg/kg/injection, schedule: Q01DX009 (ip), vehicle: saline with Tween-80.
Setting [7] is: dose: 50.0 mg/kg/injection, schedule: Q01DX009 (ip), vehicle: saline with Tween-80.
[8] abbreviates: dose: 100.0 mg/kg/injection, schedule: Q01DX009 (ip), vehicle: saline with Tween-80.

We go through 26 compounds from PubChem BioAssay AID330 (DTP/NCI, 2004).

“And” between values parts separate entries of the source, which are not always exact repeats. Identical values can stand only once. Toxic doses and inconclusive results are not listed.

Turning to `CS(=O)(=O)N1CC=CCS1=O` (configuration not stated), the T/C runs as follows: (dose: 6.25 mg/kg/injection, schedule: Q01DX009 (ip), vehicle: Klucel (hydroxypropylcellulose) (HPC)) 103 % of control; (dose: 12.5 mg/kg/injection, schedule: Q01DX009 (ip), vehicle: Klucel (hydroxypropylcellulose) (HPC)) 108 % of control; (dose: 25.0 mg/kg/injection, schedule: Q01DX009 (ip), vehicle: Klucel (hydroxypropylcellulose) (HPC)) 108 % of control.

Consider `O=C(NCCCCCCCCNC(=O)C(Cl)Cl)C(Cl)Cl`, for which the T/C by setting is: under setting [1], 106 % of control; under setting [2], 99 % of control; under setting [3], 92 % of control.

Turning to `BrCCCCOCBr`, the T/C under setting [4] is 95 % of control; the T/C under setting [5] was 95 % of control; the T/C (dose: 240.0 mg/kg/injection, schedule: Q01DX005 (ip), vehicle: saline) is 86 % of control.

On to `Nc1nc(-c2ccccn2)cc(-c2cc(-c3ccccn3)nc(N)n2)n1`, for which the T/C is 102 % of control (dose: 60.0 mg/kg/injection, schedule: Q01DX005 (ip), vehicle: Klucel (hydroxypropylcellulose) (HPC)) and 112 % of control (dose: 120.0 mg/kg/injection, schedule: Q01DX005 (ip), vehicle: Klucel (hydroxypropylcellulose) (HPC)).

Consider `CCN(CC)CCCC(C)Nc1cc(/C=C/c2ccc(Cl)cc2)nc2ccc(N(C)C)cc12` (configuration not stated), for which the T/C runs as follows: (dose: 7.5 mg/kg/injection, schedule: Q01DX005 (ip), vehicle: saline with Tween-80) 100 % of control; (dose: 15.0 mg/kg/injection, schedule: Q01DX005 (ip), vehicle: saline with Tween-80) 104 % of control.

Take `C=CC(=O)N/C(N)=N\C(N)=O`: the T/C is 110 % of control (dose: 3.0 mg/kg/injection, schedule: Q01DX005 (ip), vehicle: saline); 112 % of control (dose: 6.0 mg/kg/injection, schedule: Q01DX005 (ip), vehicle: saline); 113 % of control (dose: 12.0 mg/kg/injection, schedule: Q01DX005 (ip), vehicle: saline); 113 % of control (dose: 12.5 mg/kg/injection, schedule: Q01DX005 (ip), vehicle: saline).

For the compound `[CH3][Sn]([CH3])([S]CCS(=O)(=O)O)[S]CCS(=O)(=O)O`, the T/C is 120 % of control (dose: 15.0 mg/kg/injection, schedule: Q01DX005 (ip), vehicle: saline); 98 % of control (dose: 30.0 mg/kg/injection, schedule: Q01DX005 (ip), vehicle: saline); 107 % of control under setting [4]; 121 % of control under setting [5].

In the case of `COc1cc2c3c4c(ccc3c1OC)CCCN4CC2`, the T/C was 99 % of control (dose: 50.0 mg/kg/injection, schedule: Q01DX005 (ip), vehicle: Klucel + Tween-80) and 97 % of control (dose: 100.0 mg/kg/injection, schedule: Q01DX005 (ip), vehicle: Klucel + Tween-80).

`c1ccc2c3c(ccc2c1)CC1CCCN1C3` (configuration not stated): the T/C is 100 % of control (dose: 100.0 mg/kg/injection, schedule: Q04DX003 (ip), vehicle: Klucel (hydroxypropylcellulose) (HPC)) and 103 % of control (dose: 200.0 mg/kg/injection, schedule: Q04DX003 (ip), vehicle: Klucel (hydroxypropylcellulose) (HPC)).

Regarding `COC(c1ccccc1)C1(O)CCN(C)CC1` (configuration not stated), the T/C reads like this: (dose: 72.0 mg/kg/injection, schedule: Q04DX002 (ip), vehicle: Klucel (hydroxypropylcellulose) (HPC)) 98 % of control; (dose: 144.0 mg/kg/injection, schedule: Q04DX002 (ip), vehicle: Klucel (hydroxypropylcellulose) (HPC)) 97 % of control; (dose: 288.0 mg/kg/injection, schedule: Q04DX002 (ip), vehicle: Klucel (hydroxypropylcellulose) (HPC)) 98 % of control.

As to `COc1ccc2c(c1)C(=O)C1(CC2)OC1c1ccncc1` (configuration not stated), the T/C by setting is: (dose: 100.0 mg/kg/injection, schedule: Q01DX009 (ip), vehicle: Klucel (hydroxypropylcellulose) (HPC)) 97 % of control; (dose: 200.0 mg/kg/injection, schedule: Q01DX009 (ip), vehicle: Klucel (hydroxypropylcellulose) (HPC)) 100 % of control.

Take `c1ccc(CC2CCc3ccccc3/C2=N/OCC2CO2)cc1` (configuration not stated): the T/C is, setting by setting: (dose: 30.0 mg/kg/injection, schedule: Q01DX005 (ip), vehicle: saline with Tween-80) 101 % of control; (dose: 60.0 mg/kg/injection, schedule: Q01DX005 (ip), vehicle: saline with Tween-80) 97 % of control; (dose: 120.0 mg/kg/injection, schedule: Q01DX005 (ip), vehicle: saline with Tween-80) 98 % of control.

For the compound `CC1=Nc2ccccc2C(=O)NN1`, the T/C by setting is: (dose: 100.0 mg/kg/injection, schedule: Q04DX002 (ip), vehicle: saline with Tween-80) 101 % of control; (dose: 200.0 mg/kg/injection, schedule: Q04DX002 (ip), vehicle: saline with Tween-80) 101 % of control; (dose: 400.0 mg/kg/injection, schedule: Q04DX002 (ip), vehicle: saline with Tween-80) 102 % of control.

Regarding `CCCSCCNC(=O)C1(O)C(O)C2(CC)C=CCN3CCC4(c5cc(C6(OC(C)=O)CC7C=C(CC)CN(CCc8c6[nH]c6ccccc86)C7)c(OC)cc5N(C)C14)C32` (configuration not stated), the T/C is 107 % of control (dose: 0.5 mg/kg/injection, schedule: Q01DX001 (ip), vehicle: water); 111 % of control (dose: 2.0 mg/kg/injection, schedule: Q01DX001 (ip), vehicle: water); 159 % of control (dose: 4.0 mg/kg/injection, schedule: Q01DX001 (ip), vehicle: water); 161 % of control (dose: 8.0 mg/kg/injection, schedule: Q01DX001 (ip), vehicle: water); 158 % of control and 198 % of control (dose: 16.0 mg/kg/injection, schedule: Q01DX001 (ip), vehicle: water).

`Cn1c(=O)c2nc(-c3cccnc3)cnc2n(C)c1=O`: the T/C (dose: 100.0 mg/kg/injection, schedule: Q01DX001 (ip), vehicle: Klucel (hydroxypropylcellulose) (HPC)) was 105 % of control; the T/C (dose: 200.0 mg/kg/injection, schedule: Q01DX001 (ip), vehicle: Klucel (hydroxypropylcellulose) (HPC)) is 105 % of control; the T/C (dose: 400.0 mg/kg/injection, schedule: Q01DX001 (ip), vehicle: Klucel (hydroxypropylcellulose) (HPC)) is 105 % of control.

Turning to `CC(=O)C(Cl)C(=O)c1c(C)[nH]n(-c2ccccc2)c1=O` (configuration not stated), the T/C is 110 % of control (dose: 50.0 mg/kg/injection, schedule: Q01DX005 (ip), vehicle: Klucel (hydroxypropylcellulose) (HPC)) and 123 % of control (dose: 100.0 mg/kg/injection, schedule: Q01DX005 (ip), vehicle: Klucel (hydroxypropylcellulose) (HPC)).

As for `COC(=O)C(C)c1cc2ccccc2[nH]1` (configuration not stated), the T/C is, setting by setting: under setting [6], 100 % of control; under setting [7], 99 % of control; under setting [8], 113 % of control.

Take `O=C(O)c1c[nH]c2cc(OCCOc3ccccc3)ccc2c1=O`: the T/C is, setting by setting: (dose: 50.0 mg/kg/injection, schedule: Q01DX009 (ip), vehicle: saline) 107 % of control; (dose: 100.0 mg/kg/injection, schedule: Q01DX009 (ip), vehicle: saline) 107 % of control; (dose: 200.0 mg/kg/injection, schedule: Q01DX009 (ip), vehicle: saline) 100 % of control.

As to `CC(=O)Nc1nc(N)nc(N)n1`, the T/C is, setting by setting: under setting [7], 106 % of control; under setting [8], 103 % of control; (dose: 200.0 mg/kg/injection, schedule: Q01DX009 (ip), vehicle: saline with Tween-80) 88 % of control.

With `O=[N+]([O-])c1ccc(SSc2ccc([N+](=O)[O-])cn2)nc1`, the T/C runs as follows: under setting [6], 104 % of control; under setting [7], 86 % of control; under setting [8], 95 % of control.

Regarding `O=C(O)c1cc2c(Cl)cccc2[nH]1`, the T/C reads like this: under setting [6], 90 % of control; under setting [7], 90 % of control; under setting [8], 90 % of control.

Take `CN1CC2c3ccccc3C(=O)C1(O)c1ccccc12` (configuration not stated): the T/C under setting [1] is 103 % of control, the T/C under setting [2] was 103 % of control and the T/C under setting [3] is 103 % of control.

Consider `COCCN(CCOC)C(C(=O)Cc1ccccc1)c1ccccc1` (configuration not stated), for which the T/C runs as follows: under setting [1], 99 % of control; under setting [2], 101 % of control; under setting [3], 103 % of control.

In the case of `COc1cc(O)c2c(O)c3c(=O)cc(C)oc3cc2c1`, the T/C is, setting by setting: under setting [6], 102 % of control; under setting [7], 109 % of control; under setting [8], 112 % of control.

In the case of `O=C1N(CCN2CCC3(CC2)OCCO3)CCN1c1cc(Cl)cc(Cl)c1`, the T/C runs as follows: (dose: 12.5 mg/kg/injection, schedule: Q01DX009 (ip), vehicle: water) 104 % of control and 105 % of control and 113 % of control; (dose: 25.0 mg/kg/injection, schedule: Q01DX009 (ip), vehicle: water) 105 % of control and 112 % of control and 123 % of control; (dose: 100.0 mg/kg/injection, schedule: Q01DX009 (ip), vehicle: water) 105 % of control and 110 % of control; (dose: 200.0 mg/kg/injection, schedule: Q01DX009 (ip), vehicle: water) 108 % of control.

As for `COc1ccccc1/C=N/N1C(=O)C2C3C=CC(O3)C2C1=O` (configuration not stated), the T/C reads like this: under setting [1], 104 % of control; under setting [2], 89 % of control; under setting [3], 93 % of control.
